From US5182279A, “Benzothienopyrazinedione compounds and their preparation and use” (Novo Nordisk A/S, priority 1990, dated 1993)

Assays:
[1] = test system: glycine site coupled to the NMDA ionophor complex; details: literature, in words; cited from earlier work
[2] = test system: NMDA stimulated [3H]-GABA release from cultured mouse cerebral cortex interneurons; experiment: Inhibition of NMDA stimulated [3H]-GABA release from cultured mouse cerebral cortex interneurons (Test 3); assay type: cell-based; details: inhibits 50% of NMDA induced [3H]-GABA release, 3 μg/ml NMDA, 37° C.
Source text: The NMDA antagonistic properties of the compounds is illustrated by determining their capability to antagonize NMDA stimulated [^3 H]-GABA release from cultured mouse cortex neurons. The NMDA antagonistic activity of the compounds may be shown by determining the IC50 value, which represents the concentration (μM) which inhibits 50% of NMDA induced [^3H]-GABA release.
Inhibition of NMDA stimulated [^3 H]-GABA release from cultured mouse cerebral cortex interneurons (Test 3)
Release experiments are performed using the model described by Drejer et al. (Life Sci. 38, 2077 (1986)). To cerebral cortex interneurons cultured in petri dishes (30 mm) are added 100 μg/ml 3-vinyl-GABA one hour before the experiment in order to inhibit degradation of GABA in the neurons. 30 min. before the experiment 5 μCi [^3 H]-GABA added to each culture and after this preloading period the cells are washed twice with HEPES buffered saline (HBS) containing 10 mM HEPES, 135 mM NaCl, 5 mM KCl, 0.6 mM MgSO4, 1.0 mM CaCl2 and 6 mM D-glucose; pH 7 and placed in a superfusion system. This system consists of a peristaltic pump continuously delivering thermostated 37° C. superfusion medium from a reservoir to the top of a slightly tilted petri dish. The cell monolayer at the bottom of the dish is covered with a piece of nylon mesh to facilitate dispersion of medium over the cell layer. The medium is continuously collected from the lower part of the dish and delivered to a fraction collector. Initially, the cells are superfused with HBS for 15 min. (flow rate 2 ml/min.). Then cells are stimulated for 30 sec. every 4 min. by changing the superfusion medium from HBS to a corresponding medium containing NMDA and antagonist according to the following scheme:
Stimulation no. 1: 3 μg/ml NMDA
Stimulation no. 2: 3 μg/ml NMDA +0.3 μg/ml antagonist
Stimulation no. 3: 3 μg/ml NMDA +3.0 μg/ml antagonist
The release of [^3 H]-GABA in the presence of NMDA is corrected for the mean basal release before and after stimulation. The stimulated release in the presence of antagonist is expressed relative to the stimulated release by NMDA alone and the IC50 value is calculated.

[3] = target: T1, glycine site of the NMDA receptor complex (Rattus norvegicus, UniProt P35439); experiment: Antagonism of glycine enhanced [3H]-MK-801 binding (Test 2); details: dissociation constant of receptor-antagonist complex, Schild analysis; rat cerebral membrane homogenate, pH 7.40, 23° C., 60 min, 1 nM [3H]-MK-801, 300 nM glutamate
T1 construct: thawed rat cerebral cortical membrane homogenate; from tissue; host or cells: rat cerebral cortical membrane homogenate
Experimental: The glycine antagonism is measured by determining the Ki value which represents the dissociation constant (μM) of the receptor-antagonist complex.
Antagonism enhanced [^3 H]-MK-801 binding (Test 2)
1 ml of thawed and extensively washed rat cerebral membrane homogenate in HEPES-NaOH (20 mM) pH 7.40 were incubated at 23° C. for 60 min. with 25μl[^3 H]-MK-801 (1 nM final concentration), 25 μl glutamate (300 nM final concentration), test compound in concentrations corresponding to 0, 0.5, 2 and 5 times the IC50 value from the [^3 H]-glycine binding assay (test 1) for each concentration of glycine (10; 100; 1,000; 10,000 and 100,000 nM final concentration). The binding reaction was terminated by adding 5 ml of ice- cold buffer followed by rapid filtration through Whatman GF/C glass fiber filters and 5 ml wash with ice-cold buffer. Bound radioactivity was measured by scintillation counting. Ki values were determined by Schild analysis of the data using
log(dosis ration-1)=log[Inhibitor]-log(Ki)

[4] = target: T1, glycine site of the NMDA receptor complex; experiment: [3H]-glycine binding (Test 1); details: displacement of 50% of specific [3H]-glycine binding; rat cerebral cortical membrane homogenate, pH 7.1, 0° C., 10 min
Experimental: The glycine site binding activity of these compounds of the present invention can be illustrated by determining their capability for displacing radioactively labelled glycine from the glycine site.
The displacement activity of the compounds may be shown by determining the IC50 value which represents the concentration (μM) which causes a displacement of 50% of the specific binding of [^3 H]-glycine.
^3 H]-glycine binding (Test 1)
1 ml of thawed rat cerebral cortical membrane homogenate in HEPES-Tris (5 mM) and MgCl2 (1 mM) pH 7.1 were incubated at 0° C. for 10 min. with […] and the test compound and buffer. Non-specific binding was determined by incubating with D-serine (1 mM final concentration). The binding reaction was terminated by centrifugation at 15,000 ×g at 4° C. followed by washing of the pellet with three times 3 ml of ice-cold buffer. Bound radioactivity was measured by scintillation counting. IC50 was determined by Hill analysis of at least four concentrations of test compound.

| SMILES | activity at the glycine site [1] | IC50 [2] [nM] | Ki [3] [nM] | IC50 [4] [nM] |
| --- | --- | --- | --- | --- |
| N#Cc1cc2[nH]c(=O)c(=O)[nH]c2cc1[N+](=O)[O-] [CNQX, 6-cyano-7-nitroquinoxaline 2,3-dione] | weak antagonists | – | – | – |
| C[C@@H](N)C(=O)O [D-alanine] | strong agonist activity | – | – | – |
| N[C@@H]1CONC1=O [D-cycloserine] | partial agonists | – | – | – |
| N[C@H](CO)C(=O)O [D-serine] | strong agonist activity | – | – | – |
| O=c1[nH]c2sc3ccc(F)cc3c2[nH]c1=O [Example 1, 8-Fluoro[1]benzothieno[2,3-b]pyrazine-2,3(1H,4H)-dione] | – | 39 | 8 | 52 |
| O=c1[nH]c2sc3ccc(Cl)cc3c2[nH]c1=O [Example 2, 8-Chloro[1] benzothieno[2,3-b]pyrazine-2,3(1H,4H)-dione] | – | 11 | 40 | 56 |
| O=c1[nH]c2sc3ccccc3c2[nH]c1=O [Example 3, [1]Benzothieno[2,3-b]pyrazine-2,3(1H,4H)-dione] | – | 85 | 208 | 284 |
| O=c1[nH]c2sc3ccc(Br)cc3c2[nH]c1=O [Example 4, 8-Bromo[1]benzothieno[2,3-b]pyrazine-2,3(lH,4H)-dione] | – | – | 18 | 69 |
| O=c1[nH]c2sc3cc(Cl)ccc3c2[nH]c1=O [Example 5, 7-Chloro[1]benzothieno[2,3-b]pyrazine-2,3(1H,4H)-dione] | – | – | – | 6000 |
| O=c1[nH]c2sc3c(Cl)cc(Cl)cc3c2[nH]c1=O [Example 7, 6,8-Dichloro[1]benzothieno[2,3-b]pyrazine-2,3(1H,4H)dione] | – | 68 | – | 312 |
| O=C(O)c1cc(O)c2ccc(Cl)cc2n1 [Example 7-Cl-Kyn, 7-chlorokynurenic acid, reference compound] | quite strong antagonists | 1300 | 710 | 1400 |
| O=c1[nH]c2sc3ccc(I)cc3c2[nH]c1=O [Example 8, 8-Iodo[1]benzothieno[2,3-b]pyrazine-2,3(1H,4H)-dione] | – | 112 | – | 1000 |
| O=c1[nH]c2sc3ccc(C(F)(F)F)cc3c2[nH]c1=O [Example 9, 8-Trifluoromethyl[1]benzothieno[2,3-b]pyrazine-2,3-(1H, 4H)-dione] | – | – | – | 7000 |
| COc1cccc2c1sc1[nH]c(=O)c(=O)[nH]c12 [Example 10, 6-Methoxy[1]benzothieno[2,3-b]pyrazine-2,3(lH,4H)-dione] | – | – | – | 10800 |
| COc1ccc2c(c1)sc1[nH]c(=O)c(=O)[nH]c12 [Example 11, 7-Methoxy[1]benzothieno[2,3-b]pyrazine-2,3(lH,4H)-dione] | – | – | – | 15000 |
| O=c1[nH]c2sc3c(Cl)cccc3c2[nH]c1=O [Example 12, 6-Chloro[1]benzothieno[2,3-b]pyrazine-2,3(lH,4H)-dione] | – | – | 41 | 180 |
| O=c1[nH]c2sc3c(F)cccc3c2[nH]c1=O [Example 13, 6-Fluoro[1]benzothieno[2,3-b]pyrazine-2,3(lH,4H)-dione] | – | – | – | 262 |
| O=c1[nH]c2sc3cc(Br)c(F)cc3c2[nH]c1=O [Example 14, 7-Bromo-8-fluoro[1]benzothieno[2,3-b]pyrazine-2,3-(1H,4H)-dione] | – | – | – | 540 |
| NC1CCN(O)C1=O (centres unmarked) [HA-966, 3-amino-1-hydroxy-2-pyrrolidone, reference compound] | weak antagonists | 25000 | 16000 | 13000 |
